In patent US20250179059A1 (The Regents of the University of California, priority 2021, published 2025):

Legend:
[1] = system: human SKM-1 acute myeloid leukemia cells; test: SKM-1 antiproliferation cell-based assay (ATPlite); details: Homo sapiens, SKM-1, 96 h, SKM-1 antiproliferation assay, 4 days, Table C2
Outline: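 Log-phase cells in RPMI 1640/15% FBS were seeded at 34722 cells/mL and exposed for 4 days to nine-concentration DMSO serial dilutions in triplicate. Viability was read as ATP luminescence (ATPlite 1step), and IC50 values came from variable-slope non-linear regression.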

[2] = molecular target: T1, human BRD4 bromodomain II (Homo sapiens, UniProt O60885); test: Bromodomain binding assay (AlphaScreen), BRD4 BDII; details: AlphaScreen assay, Table C2; read-out: BRD4 BDII IC50
T1 construct: human BRD4 bromodomain II [based on Genbank NM_058243, residues 349-460]; host or cells: E. coli
Outline: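 First, His6-tagged BRD4 bromodomain (BDI residues 44-170 or BDII residues 349-460) is incubated with compound for 30 min at room temperature. Next the biotinylated H4 peptide is added for 30 min, then donor and acceptor beads, with 60 min in the dark before AlphaScreen reading and IC50 fitting.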

GI50 [1] | IC50 [2] | SMILES
0.3 to 30 nM | 0.01 to 1 nM | Cc1ncc(-c2cc(F)cc(-c3ccc(-n4ccn(C)c4=O)c(Cl)c3)c2O)cc1N1CCN(C(C)C)CC1 [Example 722, 1-(3-chloro-5′-fluoro-2′-hydroxy-3′-(5-(4-isopropylpiperazin-1-yl)-6-methylpyridin-3-yl)-[1,1′-biphenyl]-4-yl)-3-methyl-1H-imidazol-2(3H)-one]
0.3 to 30 nM | 1 to 10 nM | Cn1cc(-c2cc(F)cc(-c3ccc(-n4ccn(C)c4=O)c(Cl)c3)c2O)cc(N2CCC(C)(N)C2)c1=O (stereo not drawn) [Example 723, 3-(3-amino-3-methylpyrrolidin-1-yl)-5-(3′-chloro-5-fluoro-2-hydroxy-4′-(3-methyl-2-oxo-2,3-dihydro-1H-imidazol-1-yl)-[1,1′-biphenyl]-3-yl)-1-methylpyridin-2(1H)-one]
0.3 to 30 nM | 0.01 to 1 nM | COCC(C)(C)N1CCN(c2cc(-c3cc(F)cc(-c4ccc(-n5ccn(C)c5=O)c(Cl)c4)c3O)ccn2)CC1 [Example 724, 1-(3-chloro-5′-fluoro-2′-hydroxy-3′-(2-(4-(1-methoxy-2-methylpropan-2-yl)piperazin-1-yl)pyridin-4-yl)-[1,1′-biphenyl]-4-yl)-3-methyl-1H-imidazol-2(3H)-one]
30 to 300 nM | 1 to 10 nM | Cn1cc(-c2cc(F)cc(-c3ccc(-n4ccn(C)c4=O)c(Cl)c3)c2O)cc(N2CCC(C)(O)C2)c1=O (stereo not drawn) [Example 725, 5-(3′-chloro-5-fluoro-2-hydroxy-4′-(3-methyl-2-oxo-2,3-dihydro-1H-imidazol-1-yl)-[1,1′-biphenyl]-3-yl)-3-(3-hydroxy-3-methylpyrrolidin-1-yl)-1-methylpyridin-2(1H)-one]
0.3 to 30 nM | 0.01 to 1 nM | Cn1ccn(-c2ccc(-c3cc(F)cc(-c4ccnc(N5C[C@@H](O)[C@H](O)C5)c4)c3O)cc2Cl)c1=O [Example 726, 1-(3-chloro-3′-(2-((3R,4R)-3,4-dihydroxypyrrolidin-1-yl)pyridin-4-yl)-5′-fluoro-2′-hydroxy-[1,1′-biphenyl]-4-yl)-3-methyl-1H-imidazol-2(3H)-one]
0.3 to 30 nM | 0.01 to 1 nM | CC(C)N1CCC2CN(c3cc(-c4cc(F)cc(-c5ccc(-n6ccn(C)c6=O)c(Cl)c5)c4O)ccn3)CC21 (stereo not drawn) [Example 727, 1-(3-chloro-5′-fluoro-2′-hydroxy-3′-(2-(1-isopropylhexahydropyrrolo[3,4-b]pyrrol-5(1H)-yl)pyridin-4-yl)-[1,1′-biphenyl]-4-yl)-3-methyl-1H-imidazol-2(3H)-one]
0.3 to 30 nM | 1 to 10 nM | Cn1ccn(-c2ccc(-c3cc(F)cc(-c4cncc(N5CC[C@@](C)(O)C5)c4)c3O)cc2Cl)c1=O [Example 728, (R)-1-(3-chloro-5′-fluoro-2′-hydroxy-3′-(5-(3-hydroxy-3-methylpyrrolidin-1-yl)pyridin-3-yl)-[1,1′-biphenyl]-4-yl)-3-methyl-1H-imidazol-2(3H)-one]
0.3 to 30 nM | 0.01 to 1 nM | Cn1ccn(-c2ccc(-c3cc(F)cc(-c4cncc(N5CC[C@](C)(O)C5)c4)c3O)cc2Cl)c1=O [Example 729, (S)-1-(3-chloro-5′-fluoro-2′-hydroxy-3′-(5-(3-hydroxy-3-methylpyrrolidin-1-yl)pyridin-3-yl)-[1,1′-biphenyl]-4-yl)-3-methyl-1H-imidazol-2(3H)-one]
0.3 to 30 nM | 0.01 to 1 nM | Cn1ccn(-c2ccc(-c3cc(F)cc(-c4ccnc(N5CCC(O)(CO)C5)c4)c3O)cc2Cl)c1=O (stereo not drawn) [Example 731, 1-(3-chloro-5′-fluoro-2′-hydroxy-3′-(2-(3-hydroxy-3-(hydroxymethyl)pyrrolidin-1-yl)pyridin-4-yl)-[1,1′-biphenyl]-4-yl)-3-methyl-1H-imidazol-2(3H)-one]
0.3 to 30 nM | 1 to 10 nM | COc1cc(-c2cc(F)cc(-c3ccc(-n4ccn(C)c4=O)c(Cl)c3)c2O)cc(N2CCN(C(C)(C)C)CC2)n1 [Example 732, 1-(3′-(2-(4-(tert-butyl)piperazin-1-yl)-6-methoxypyridin-4-yl)-3-chloro-5′-fluoro-2′-hydroxy-[1,1′-biphenyl]-4-yl)-3-methyl-1H-imidazol-2(3H)-one]
30 to 300 nM | 1 to 10 nM | COCC(COC)N1CCN(c2cc(-c3cc(F)cc(-c4ccc(-n5ccn(C)c5=O)c(Cl)c4)c3O)ccn2)CC1 [Example 733, 1-(3-chloro-3′-(2-(4-(1,3-dimethoxypropan-2-yl)piperazin-1-yl)pyridin-4-yl)-5′-fluoro-2′-hydroxy-[1,1′-biphenyl]-4-yl)-3-methyl-1H-imidazol-2(3H)-one]
0.3 to 30 nM | 0.01 to 1 nM | Cn1ccn(-c2ccc(-c3cc(F)cc(-c4cccc(N5CCN(C(C)(C)C)CC5)c4)c3O)cc2Cl)c1=O [Example 734, 1-(3″-(4-(tert-butyl)piperazin-1-yl)-3-chloro-5′-fluoro-2′-hydroxy-[1,1′:3′,1″-terphenyl]-4-yl)-3-methyl-1H-imidazol-2(3H)-one]
0.3 to 30 nM | 0.01 to 1 nM | Cn1ccn(-c2ccc(-c3cc(F)cc(-c4cc(N5CCN(C(C)(C)C)CC5)n(C)c(=O)c4)c3O)cc2Cl)c1=O [Example 735, 6-(4-(tert-butyl)piperazin-1-yl)-4-(3′-chloro-5-fluoro-2-hydroxy-4′-(3-methyl-2-oxo-2,3-dihydro-1H-imidazol-1-yl)-[1,1′-biphenyl]-3-yl)-1-methylpyridin-2(1H)-one]
0.3 to 30 nM | 0.01 to 1 nM | Cn1ccn(-c2ccc(-c3cc(F)cc(-c4ccnc(N5CCC6(CCC(=O)N6)C5)c4)c3O)cc2Cl)c1=O (stereo not drawn) [Example 736, 7-(4-(3′-chloro-5-fluoro-2-hydroxy-4′-(3-methyl-2-oxo-2,3-dihydro-1H-imidazol-1-yl)-[1,1′-biphenyl]-3-yl)pyridin-2-yl)-1,7-diazaspiro[4.4]nonan-2-one]
0.3 to 30 nM | 0.01 to 1 nM | CCC1(O)CCN(c2cc(-c3cc(F)cc(-c4ccc(-n5ccn(C)c5=O)c(Cl)c4)c3O)ccn2)C1 (stereo not drawn) [Example 737, 1-(3-chloro-3′-(2-(3-ethyl-3-hydroxypyrrolidin-1-yl)pyridin-4-yl)-5′-fluoro-2′-hydroxy-[1,1′-biphenyl]-4-yl)-3-methyl-1H-imidazol-2(3H)-one]
0.3 to 30 nM | 0.01 to 1 nM | COc1ncc(-c2cc(F)cc(-c3ccc(-n4ccn(C)c4=O)c(Cl)c3)c2O)cc1N1CCN(C(C)C)CC1 [Example 738, 1-(3-chloro-5′-fluoro-2′-hydroxy-3′-(5-(4-isopropylpiperazin-1-yl)-6-methoxypyridin-3-yl)-[1,1′-biphenyl]-4-yl)-3-methyl-1H-imidazol-2(3H)-one]
0.3 to 30 nM | 0.01 to 1 nM | Cn1ccn(-c2ccc(-c3cc(F)cc(-c4ccnc(N5C[C@@H](O)[C@@H](O)C5)c4)c3O)cc2Cl)c1=O [Example 739, 1-(3-chloro-3′-(2-((3S,4R)-3,4-dihydroxypyrrolidin-1-yl)pyridin-4-yl)-5′-fluoro-2′-hydroxy-[1,1′-biphenyl]-4-yl)-3-methyl-1H-imidazol-2(3H)-one]
0.3 to 30 nM | 0.01 to 1 nM | CN(C)C1(C)CCN(c2cc(-c3cc(F)cc(-c4ccc(-n5ccn(C)c5=O)c(Cl)c4)c3O)ccn2)C1 (stereo not drawn) [Example 741, 1-(3-chloro-3′-(2-(3-(dimethylamino)-3-methylpyrrolidin-1-yl)pyridin-4-yl)-5′-fluoro-2′-hydroxy-[1,1′-biphenyl]-4-yl)-3-methyl-1H-imidazol-2(3H)-one]
0.3 to 30 nM | 0.01 to 1 nM | Cn1ccn(-c2ccc(-c3cc(F)cc(-c4cncc(N5CC[C@@](C)(N)C5)c4)c3O)cc2Cl)c1=O [Example 742, (R)-1-(3′-(5-(3-amino-3-methylpyrrolidin-1-yl)pyridin-3-yl)-3-chloro-5′-fluoro-2′-hydroxy-[1,1′-biphenyl]-4-yl)-3-methyl-1H-imidazol-2(3H)-one]
0.3 to 30 nM | 0.01 to 1 nM | Cn1ccn(-c2ccc(-c3cc(F)cc(-c4ccnc(N5CC(O)C6(CC6)C5)c4)c3O)cc2Cl)c1=O (stereo not drawn) [Example 743, 1-(3-chloro-5′-fluoro-2′-hydroxy-3′-(2-(7-hydroxy-5-azaspiro[2.4]heptan-5-yl)pyridin-4-yl)-[1,1′-biphenyl]-4-yl)-3-methyl-1H-imidazol-2(3H)-one]
0.3 to 30 nM | 0.01 to 1 nM | Cn1ccn(-c2ccc(-c3cc(F)cc(-c4ccnc(N5CCCC(C)(N)C5)c4)c3O)cc2Cl)c1=O (stereo not drawn) [Example 744, 1-(3′-(2-(3-amino-3-methylpiperidin-1-yl)pyridin-4-yl)-3-chloro-5′-fluoro-2′-hydroxy-[1,1′-biphenyl]-4-yl)-3-methyl-1H-imidazol-2(3H)-one]
0.3 to 30 nM | 0.01 to 1 nM | Cn1ccn(-c2ccc(-c3cc(F)cc(-c4cncc(N5CCC(C)(N)C5)c4)c3O)cc2Cl)c1=O (stereo not drawn) [Example 745, 1-(3′-(5-(3-amino-3-methylpyrrolidin-1-yl)pyridin-3-yl)-3-chloro-5′-fluoro-2′-hydroxy-[1,1′-biphenyl]-4-yl)-3-methyl-1H-imidazol-2(3H)-one]

SMILES | GI50 [1] | IC50 [2]
CC(C)N1C2CCC1CN(c1cc(-c3cc(F)cc(-c4ccc(-n5ccn(C)c5=O)c(Cl)c4)c3O)ccn1)C2 [Example 730, 1-(3-chloro-5′-fluoro-2′-hydroxy-3′-(2-(8-isopropyl-3,8-diazabicyclo[3.2.1]octan-3-yl)pyridin-4-yl)-[1,1′-biphenyl]-4-yl)-3-methyl-1H-imidazol-2(3H)-one] | 0.3 to 30 nM | 0.01 to 1 nM
CC(C)N1C2CCC1CN(c1cncc(-c3cc(F)cc(-c4ccc(-n5ccn(C)c5=O)c(Cl)c4)c3O)c1)C2 [Example 740, 1-(3-chloro-5′-fluoro-2′-hydroxy-3′-(5-(8-isopropyl-3,8-diazabicyclo[3.2.1]octan-3-yl)pyridin-3-yl)-[1,1′-biphenyl]-4-yl)-3-methyl-1H-imidazol-2(3H)-one] | 0.3 to 30 nM | 0.01 to 1 nM
